In patent CN117003659A, “一种可离子化脂质或其药学上可接受的盐、组合物和应用” (priority 2023, dated 2023):

Columns and labels:
[1] = tested on: HEK293T cells (HEK293T细胞); format: cell-based; details: RBD mRNA-LNP, mRNA 1 μg, 24 h, cell supernatant
[2] = tested on: female BALB/C mice (雌性BALB/C小鼠); test: In vivo expression of Fluc mRNA-LNP, live fluorescence imaging (Example 7); design: species or system mouse; details: for fluorescence intensity (total luminous flux) / course of fluorescence intensity at 24 h (in words): mice, 20 μg Fluc mRNA, intramuscular; for fluorescence intensity (total luminous flux): 6 h, order of magnitude; for fluorescence intensity of expressed protein compared with U-102, U-104, U-106, U-108, U-110, U-112 (in words): mRNA-LNP, versus U-102, U-104, U-106, U-108, U-110, U-112
[3] = tested on: human umbilical vein endothelial cells (人脐静脉内皮细胞, HUVEC); test: In vitro expression of VEGFa mRNA-LNP, ELISA of VEGFa protein (Example 6); format: cell-based; details: mRNA 1 μg, 24 h

Structure (SMILES) | RBD protein concentration [1] [ng/mL] | fluorescence intensity (total luminous flux) [2] | course of fluorescence intensity at 24 h (in words) [2] | VEGFa protein concentration [3] [ng/mL] | fluorescence intensity of expressed protein compared with U-102, U-104, U-106, U-108, U-110, U-112 (in words) [2]
CCCCCCCCC(CCCCCC)C(=O)OCCCCCCN(CCCCO)CCCCCCOC(=O)C(CCCCCC)CCCCCCCC (stereo not shown) [ALC-0315, ((4-羟基丁基)氮杂二基)双(己烷-6,1-二基)双(2-己基癸酸酯), reference compound] | 8.5 | ~10^7 p/s | 开始减弱 | 7.9 | –
CCCCCCCCCCCOC(=O)CCCCCN(CCO)CCCCCCCC(=O)OC(CCCCCCCC)CCCCCCCC [SM-102, 8-[(2-羟乙基)[6-氧代-6-(十一烷基氧基)己基]氨基]辛酸1-辛基壬基酯, reference compound] | 10.2 | ~10^7 p/s | 开始减弱 | 11.3 | –
CCCCCCCCC(CCCCCC)COC(=O)CCCCCN(CCCCCC(=O)OCC(CCCCCC)CCCCCCCC)CCCN(CCO)CCO (stereo not shown) [U-101, 双(2-己基癸基)-6,6'-((3-(双(2-羟乙基)氨基)丙基)氮杂二烷基)二己酸酯] | 50.6 | – | – | 52.8 | 更高一些
CCCCCCCCC(CCCCCC)COC(=O)CCCCCCN(CCCCCCC(=O)OCC(CCCCCC)CCCCCCCC)CCN(CCO)CCO (stereo not shown) [U-102, 双(2-己基癸基)-7,7'-((2-(双(2-羟乙基)氨基)乙基)氮杂二烷基)二庚酸酯] | 49.3 | – | – | 48.7 | –
CCCCCCCCCCCCOC(=O)CCCCCN(CCCCCC(=O)OCC(CCCCCC)CCCCCCCC)CCCN(CCO)CCO (stereo not shown) [U-103, O-2-己基癸基-O’-十二烷基-6,6'-((3-(双(2-羟乙基)氨基)丙基)氮杂二烷基)二己酸酯] | 49.6 | – | – | 49.6 | 更高一些
CCCCCCCCCCCCOC(=O)CCCCCCN(CCCCCCC(=O)OCC(CCCCCC)CCCCCCCC)CCN(CCO)CCO (stereo not shown) [U-104, O-2-己基癸基-O’-十二烷基-6,6'-((2-(双(2-羟乙基)氨基)乙基)氮杂二烷基)二庚酸酯] | 48.7 | – | – | 47.9 | –
CCCCCCCCC(CCCCCCCC)OC(=O)CCCCCN(CCCCCC(=O)OC(CCCCCCCC)CCCCCCCC)CCCN(CCO)CCO [U-105, 双(1-辛基壬基)-6,6'-((3-(双(2-羟乙基)氨基)丙基)氮杂二烷基)二己酸酯] | 48.4 | – | – | 48.3 | 更高一些
CCCCCCCCC(CCCCCCCC)OC(=O)CCCCCCN(CCCCCCC(=O)OC(CCCCCCCC)CCCCCCCC)CCN(CCO)CCO [U-106, 双(1-辛基壬基)-7,7'-((2-(双(2-羟乙基)氨基)乙基)氮杂二烷基)二庚酸酯] | 47.8 | – | – | 45.5 | –
CCCCCCCCCCCCOC(=O)CCCCCN(CCCCCC(=O)OC(CCCCCCCC)CCCCCCCC)CCCN(CCO)CCO [U-107, O-1-辛基壬基-O’-十二烷基-6,6'-((3-(双(2-羟乙基)氨基)丙基)氮杂二烷基)二己酸酯] | 47.6 | – | – | 47.7 | 更高一些
CCCCCCCCCCCCOC(=O)CCCCCCN(CCCCCCC(=O)OC(CCCCCCCC)CCCCCCCC)CCN(CCO)CCO [U-108, O-1-辛基壬基-O’-十二烷基-7,7'-((2-(双(2-羟乙基)氨基)乙基)氮杂二烷基)二庚酸酯] | 45.7 | – | – | 45.3 | –
CCCCCCCC(CCCCCCC)OC(=O)CCCCCN(CCCCCC(=O)OC(CCCCCCC)CCCCCCC)CCCN(CCO)CCO [U-109, 双(1-庚基辛基)-6,6'-((3-(双(2-羟乙基)氨基)丙基)氮杂二烷基)二己酸酯] | 43.2 | – | – | 39.2 | 更高一些
CCCCCCCC(CCCCCCC)OC(=O)CCCCCCN(CCCCCCC(=O)OC(CCCCCCC)CCCCCCC)CCN(CCO)CCO [U-110, 双(1-庚基辛基)-7,7'-((2-(双(2-羟乙基)氨基)乙基)氮杂二烷基)二庚酸酯] | 41.6 | – | – | 36.8 | –
CCCCCCCCCCCCOC(=O)CCCCCN(CCCCCC(=O)OC(CCCCCCC)CCCCCCC)CCCN(CCO)CCO [U-111, O-1-庚基辛基-O’-十二烷基-6,6'-((3-(双(2-羟乙基)氨基)丙基)氮杂二烷基)二己酸酯] | 44.3 | – | – | 41.7 | 更高一些
CCCCCCCCCCCCOC(=O)CCCCCCN(CCCCCCC(=O)OC(CCCCCCC)CCCCCCC)CCN(CCO)CCO [U-112, O-1-庚基辛基-O’-十二烷基-7,7'-((2-(双(2-羟乙基)氨基)乙基)氮杂二烷基)二庚酸酯] | 42.8 | – | – | 36.1 | –
CCCCCCCCC(CCCCCC)COC(=O)CCCCCN(CCCCCC(=O)OCC(CCCCCC)CCCCCCCC)CCN(CCO)CCO (stereo not shown) [UR-301, 双(2-己基癸基)-6,6'-((2-(双(2-羟乙基)氨基)乙基)氮杂二烷基)二己酸酯] | 6.8 | – | – | 4.8 | –
CCCCCCCCC(CCCCCC)COC(=O)CCCCCCN(CCCCCCC(=O)OCC(CCCCCC)CCCCCCCC)CCCN(CCO)CCO (stereo not shown) [UR-302, 双(2-己基癸基)-7,7'-((3-(双(2-羟乙基)氨基)丙基)氮杂二烷基)二庚酸酯] | 4.5 | – | – | 3.7 | –
CCCCCCCCC(CCCCCC)COC(=O)CCCCCCCN(CCCCCCCC(=O)OCC(CCCCCC)CCCCCCCC)CCN(CCO)CCO (stereo not shown) [UR-303, 双(2-己基癸基)-8,8'-((2-(双(2-羟乙基)氨基)乙基)氮杂二烷基)二辛酸酯] | 6.4 | – | – | 6.2 | –
CCCCCCCCC(CCCCCC)COC(=O)CCCCN(CCCCC(=O)OCC(CCCCCC)CCCCCCCC)CCCN(CCO)CCO (stereo not shown) [UR-304, 双(2-己基癸基)-5,5'-((3-(双(2-羟乙基)氨基)丙基)氮杂二烷基)二戊酸酯] | 5.4 | – | – | 4.9 | –
